Like-named read-outs stand apart in the source and are kept apart here.
Key:
[1] = tested on: beta amyloid (Aβ) production in N2a/APP cells; test: Inhibition of beta amyloid Aβ(1-42) production in nerve cells, immunoassay; type: cell-based; conditions: read-out: Aβ Inhibition Rate (%)
Protocol: N2a/APP cells, used as a study model for neurodegenerative diseases (Wang X C, Zhang Y C, Chatterjie N, Grundke-Iqbal I, Iqbal K, Wang J Z. Neurochem Res (2008) 33:1138-1144), were employed to analyze the inhibition of beta amyloid (Aβ) production in nerve cells. N2a/APP cells were fixed onto 24-well plates (5×10^4 cells/well) containing a medium devoid of hygromycin B. The ingredients listed in Table 5 were added at a final concentration of 10 μg/mL to each well and incubated for 48 hrs. Secreted Aβ(1-42) was quantitatively analyzed with an Aβ(1-42) immunoassay kit (Biosource, Camarillo, Calif., USA). In this regard, the medium in each well was transferred into 96-well plates coated with an Aβ(1-42) antibody and then treated with a detection antibody. For this, after incubation at room temperature for 3 hrs, the medium was treated with HRP (horseradish peroxidase), an anti-rabbit antibody and stabilized chromogen to allow an antigen-antibody reaction. This reaction was terminated with a stop buffer before absorbance was read at 450 nm. For a negative control, no samples were added to the medium. Inhibitory effects on beta amyloid production were calculated according to the following equation and the results are summarized in Table 5, below.
Aβ Inhibition (%)=(C−S)/C×100
(§1) where C is the absorbance of a negative control and S is the absorbance of each sample.

N2a/APP cells = test: Reduction of neurotoxicity, MTT cell viability assay; type: cell-based; conditions: 10 μg/mL, 12 hrs
Protocol: For this, N2a/APP cells were subjected to an MTT assay, which is a measure of mitochondrial activity that converts 3-(4,5-dimethyl-thiazol-2-yl)-2,5-diphenyl-tetrazolium bromide (MTT) to formazan in living cells. N2a/APP cells were seeded at a density of 1×10^4 cells/well into 96-well plates, incubated for 24 hrs, and left for 12 hrs in serum-free DMEM-Opti-MEM. Thereafter, the samples listed in Table 5 were added at a final concentration of 10 μg/mL to each well (medium free of any of the samples was used for a negative control) and then incubated for 12 hrs. To each well was added approx. 10 μL of MTT (5 mg/ml in phosphate buffered saline (PBS) solution), followed by incubation at 37° C. for 4 hrs. Each well was measured for absorbance at 570 nm. Inhibitory activity against neurotoxicity was assessed by an increase rate of cell viability as calculated by the following equation.
Increase Rate of Cell Viability (%)=(S−C)/C×100
as §1

human recombinant BACE1 = target: T1, human recombinant BACE1 (Homo sapiens, UniProt P56817); test: β-secretase inhibition, human recombinant BACE1 assay kit (PanVera), fluorescence; type: biochemical; conditions: for inhibition at 0.01 µM: read-out: BACE Inhibition at 10 nM; for IC50: β-secretase (BACE)
T1 construct: purchased PanVera, Wis., USA
T1 sequence (P56817 46-501): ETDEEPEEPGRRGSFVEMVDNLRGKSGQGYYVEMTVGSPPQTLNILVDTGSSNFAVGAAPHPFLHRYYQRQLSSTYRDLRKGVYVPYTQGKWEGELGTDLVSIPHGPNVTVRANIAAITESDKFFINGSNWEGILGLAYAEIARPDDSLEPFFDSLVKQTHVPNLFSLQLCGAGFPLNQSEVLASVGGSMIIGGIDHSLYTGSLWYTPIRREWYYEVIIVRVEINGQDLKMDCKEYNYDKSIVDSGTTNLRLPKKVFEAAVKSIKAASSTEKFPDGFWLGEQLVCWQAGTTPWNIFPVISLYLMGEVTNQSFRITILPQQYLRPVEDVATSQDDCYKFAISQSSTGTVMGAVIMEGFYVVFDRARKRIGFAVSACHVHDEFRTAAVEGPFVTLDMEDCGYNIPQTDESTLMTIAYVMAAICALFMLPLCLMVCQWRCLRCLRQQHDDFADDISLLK
Protocol: The primary 1,3,5-trihydroxybenzene polymer products obtained under the various conditions were assayed for inhibitory activity against β-secretase. For this purpose, a human recombinant BACE1 assay kit (PanVera, Wis., USA) was used according to the manufacturer's instructions.
For a negative control, an assay buffer containing none of the samples was used instead of the sample solution. In the absence of light, each reaction mixture was allowed to react at 25° C. for 60 min. Thereafter, while a light beam at 528 nm was applied to the reaction mixture, fluorescent light at 620 nm was detected with Bio-Tek Microplate fluorescence reader FLx 800 (VT, USA). Inhibition activity was calculated according to the following formula:
Inhibition (%)=[1−{(S−S0)/(C−C0)}]×100
C is a fluorescent intensity after reaction of the negative control for 60 min,
C0 is an initial fluorescent intensity of the negative control,
S is a fluorescent intensity after reaction of each sample for 60 min, and
S0 is an initial fluorescent intensity of each sample.

[2] = N2a/APP cells, 10 μg/mL, 48 hrs, secreted Aβ(1-42)

C[C@H](NC(=O)Cc1cc(F)cc(F)c1)C(=O)N[C@@H]1C(=O)N(C)c2ccccc2-c2ccccc21 [C. Ex. 2, (S)-2-[2-(3,5-Difluoro-phenyl)-acetylamino]-N-((S)-5-methyl-6-oxo-6,7-dihydro-5H-dibenzo[b,d]azepin-7-yl)-propionamide]
inhibition at 10 µg/mL [1, 2]: 21% | Increase Rate of Cell Viability (%) (N2a/APP cells): 5%

C[C@H](NC(=O)Cc1cc(F)cc(F)c1)C(=O)N[C@H]1N=C(c2ccccc2)c2ccccc2N(C)C1=O [C. Ex. 3, (S)-2-[2-(3,5-Difluoro-phenyl)-acetylamino]-N-((S)-1-methyl-2-oxo-5-phenyl-2,3-dihydro-1H-benzo[e][1,4]diazepin-3-yl)-propionamide]
inhibition at 10 µg/mL ([1]; 48 h): 22% | Increase Rate of Cell Viability (%) (N2a/APP cells): −5%

CC(C)Cc1ccc(C(C)C(=O)O)cc1 (centres unmarked) [C. Ex. 4, ibuprofen]
inhibition at 10 µg/mL [1, 2]: 17% | Increase Rate of Cell Viability (%) (N2a/APP cells): 2%

Cc1ccc(-c2cc(C(F)(F)F)nn2-c2ccc(S(N)(=O)=O)cc2)cc1 [C. Ex. 5, celecoxib]
inhibition at 10 µg/mL [1, 2]: 19% | Increase Rate of Cell Viability (%) (N2a/APP cells): 15%

O=c1c(O)c(-c2ccc(O)c(O)c2)oc2cc(O)cc(O)c12 [C. Ex. 6, quercetin]
inhibition at 10 µg/mL ([1]; 48 h): 17% | Increase Rate of Cell Viability (%) (N2a/APP cells): 12%

Oc1ccc(C=Cc2cc(O)cc(O)c2)cc1 [C. Ex. 7, resveratrol]
inhibition at 10 µg/mL ([1]; 48 h): 13% | Increase Rate of Cell Viability (%) (N2a/APP cells): 10%

Oc1cc(O)c2c(c1)Oc1c(O)cc3oc4cc(O)cc(O)c4c3c1O2 [Chemical Formula 3-1]
inhibition at 0.01 µM (human recombinant BACE1): 53% | IC50 (human recombinant BACE1): 5.8 nM

Oc1cc(O)cc(Oc2c(O)cc(O)c3c2oc2cc(O)c4c(c23)Oc2c(O)cc(O)cc2O4)c1 [Chemical Formula 3-2]
inhibition at 0.01 µM (human recombinant BACE1): 87% | IC50 (human recombinant BACE1): 1.7 nM

Oc1cc(O)cc(Oc2c(O)cc(O)c3c2Oc2c(O)cc4oc5cc(O)cc(O)c5c4c2O3)c1 [Chemical Formula 3-4]
inhibition at 0.01 µM (human recombinant BACE1): 90% | IC50 (human recombinant BACE1): 1.5 nM

Oc1cc(O)cc(Oc2c(O)cc3c(c2O)Oc2c(c(O)cc4oc5c(Oc6cc(O)cc(O)c6)c(O)cc(O)c5c24)O3)c1 [Chemical Formula 3-6]
inhibition at 0.01 µM (human recombinant BACE1): 94% | IC50 (human recombinant BACE1): 1.3 nM | inhibition at 10 µg/mL [1, 2]: 30% | Increase Rate of Cell Viability (%) (N2a/APP cells): 22%

Oc1cc(O)c2c(c1)Oc1c(cc3oc4cc(O)cc(O)c4c3c1O)O2 [Chemical Formula 4-1]
inhibition at 0.01 µM (human recombinant BACE1): 65% | IC50 (human recombinant BACE1): 4.7 nM

Oc1cc(O)cc(Oc2c(O)cc(O)c3c2oc2cc4c(c(O)c23)Oc2cc(O)cc(O)c2O4)c1 [Chemical Formula 4-2]
inhibition at 0.01 µM (human recombinant BACE1): 77% | IC50 (human recombinant BACE1): 3.6 nM

Oc1cc(O)cc(Oc2c(O)cc(O)c3c2Oc2c(cc4oc5cc(O)cc(O)c5c4c2O)O3)c1 [Chemical Formula 4-3]
inhibition at 0.01 µM (human recombinant BACE1): 70% | IC50 (human recombinant BACE1): 4 nM

Oc1cc(O)cc(Oc2c(O)cc(O)c3c2Oc2c(cc4oc5c(Oc6cc(O)cc(O)c6)c(O)cc(O)c5c4c2O)O3)c1 [Chemical Formula 4-4]
inhibition at 0.01 µM (human recombinant BACE1): 86% | IC50 (human recombinant BACE1): 2.4 nM | inhibition at 10 µg/mL [1, 2]: 27% | Increase Rate of Cell Viability (%) (N2a/APP cells): 21%
